According to article PMC6365485 (British Journal of Pharmacology, 2019):
pKi: −log10 of the molar value.

What was measured:
[1] = target: T1, human recombinant DP1 receptor (Homo sapiens, UniProt Q13258); assay: [3H]PGD2 displacement, membranes; assay type: binding
T1 sequence (Q13258 1-359): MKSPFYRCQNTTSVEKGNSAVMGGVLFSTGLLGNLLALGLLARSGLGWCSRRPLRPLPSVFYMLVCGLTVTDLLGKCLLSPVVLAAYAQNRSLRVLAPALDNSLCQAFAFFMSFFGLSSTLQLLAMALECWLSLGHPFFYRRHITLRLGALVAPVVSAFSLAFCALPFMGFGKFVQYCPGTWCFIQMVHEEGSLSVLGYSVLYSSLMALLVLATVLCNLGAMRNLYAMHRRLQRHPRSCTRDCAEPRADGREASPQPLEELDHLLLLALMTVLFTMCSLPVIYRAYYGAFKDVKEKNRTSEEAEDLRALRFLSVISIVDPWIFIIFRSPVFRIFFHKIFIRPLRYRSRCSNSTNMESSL

[2] = target: T2, human recombinant EP1 receptor (Homo sapiens, UniProt P34995); assay: [3H]PGE2 displacement, membranes; assay type: binding
T2 sequence (P34995 1-402): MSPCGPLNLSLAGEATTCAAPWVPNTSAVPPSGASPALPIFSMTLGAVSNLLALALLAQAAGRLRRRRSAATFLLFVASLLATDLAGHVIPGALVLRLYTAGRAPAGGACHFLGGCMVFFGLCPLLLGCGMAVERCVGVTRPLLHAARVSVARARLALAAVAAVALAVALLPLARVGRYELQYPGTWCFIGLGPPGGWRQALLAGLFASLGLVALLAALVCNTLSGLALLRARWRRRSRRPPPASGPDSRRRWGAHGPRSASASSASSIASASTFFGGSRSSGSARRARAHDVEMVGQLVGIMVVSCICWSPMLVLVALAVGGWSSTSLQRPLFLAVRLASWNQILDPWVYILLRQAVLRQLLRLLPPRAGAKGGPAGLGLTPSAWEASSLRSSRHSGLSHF

Row | pKi [1] | pKi [2] | Compound
1 | 8.60 |  | CCCCC[C@H](O)/C=C/[C@H]1C(=O)C[C@H](O)[C@@H]1C/C=C\CCCC(=O)O [PGD2]
2 |  | 7.30 | CCCCC[C@H](O)/C=C/[C@H]1[C@H](O)CC(=O)[C@@H]1C/C=C\CCCC(=O)O [PGE2]
